Our source for the IC50 and inhibition values is patent US10519134B2, “Pyrazole compounds and methods of making and using same” (Lundbeck La Jolla Research Center, Inc., priority 2015, dated 2019).

pIC50: −log10 of the molar value.

One test concerns the target T1, MAGL (Mus musculus, UniProt O35678).
T1 construct: Proteomes (mouse brain membrane fraction or cell lysates); from tissue; host or cells: mouse brain membrane fraction (or cell lysates)
T1 sequence (O35678 1-303): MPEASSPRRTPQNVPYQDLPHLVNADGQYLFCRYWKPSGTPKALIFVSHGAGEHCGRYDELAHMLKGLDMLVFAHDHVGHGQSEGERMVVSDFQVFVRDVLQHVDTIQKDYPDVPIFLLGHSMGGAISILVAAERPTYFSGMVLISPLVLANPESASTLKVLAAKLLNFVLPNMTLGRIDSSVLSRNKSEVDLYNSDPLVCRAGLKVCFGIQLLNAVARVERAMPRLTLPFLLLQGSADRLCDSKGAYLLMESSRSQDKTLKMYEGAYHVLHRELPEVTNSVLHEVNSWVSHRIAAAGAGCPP
The test is described as follows: In vitro competitive activity-based protein profiling (mouse), MAGL gel band. The class given is biochemical. Particulars: for pIC50: mouse; for inhibition at 1 µM: read-out: MAGL % inh. 1 μM. The procedure: (§1) In Vitro Competitive Activity-Based Protein Profiling (Mouse).
(§2) Proteomes (mouse brain membrane fraction or cell lysates) (50 μL, 1.0 mg/mL total protein concentration) were preincubated with varying concentrations of inhibitors at 37° C. After 30 min, FP-Rh or HT-01 (1.0 μL, 50 μM in DMSO) was added and the mixture was incubated for another 30 min at 37° C. Reactions were quenched with SDS loading buffer (15 μL—4×) and run on SDS-PAGE. Following gel imaging, serine hydrolase activity was determined by measuring fluorescent intensity of gel bands corresponding to MAGL, ABHD6, and FAAH, using ImageJ 1.43u software.

A further test has as its target T2, FAAH (Mus musculus, UniProt O08914).
T2 construct: Proteomes (mouse brain membrane fraction or cell lysates); from tissue; host or cells: mouse brain membrane fraction (or cell lysates)
T2 sequence (O08914 1-579): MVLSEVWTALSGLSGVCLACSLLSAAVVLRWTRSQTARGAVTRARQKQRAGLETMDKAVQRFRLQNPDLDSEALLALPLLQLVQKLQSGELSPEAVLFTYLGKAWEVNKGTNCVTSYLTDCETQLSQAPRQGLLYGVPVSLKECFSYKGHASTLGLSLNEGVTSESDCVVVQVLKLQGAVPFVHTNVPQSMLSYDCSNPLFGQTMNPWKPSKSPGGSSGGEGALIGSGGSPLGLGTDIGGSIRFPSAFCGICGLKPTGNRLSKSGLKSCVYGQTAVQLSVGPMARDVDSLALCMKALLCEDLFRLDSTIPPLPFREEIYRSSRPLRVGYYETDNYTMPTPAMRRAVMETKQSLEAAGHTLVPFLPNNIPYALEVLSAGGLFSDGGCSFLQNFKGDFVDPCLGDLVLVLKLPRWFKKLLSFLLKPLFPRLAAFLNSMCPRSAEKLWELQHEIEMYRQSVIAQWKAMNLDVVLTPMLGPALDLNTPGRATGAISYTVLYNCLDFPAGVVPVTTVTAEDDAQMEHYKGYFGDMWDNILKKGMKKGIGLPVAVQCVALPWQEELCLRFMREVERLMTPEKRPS
The test is described as follows: In vitro competitive activity-based protein profiling (mouse), FAAH gel band. The class given is biochemical. Particulars: for pIC50: mouse; for inhibition at 1 µM: read-out: FAAH % inh. 1 μM. How it is done:
as §1, §2

As for `CC(=O)Nc1ccn(C(=O)N2CCC3(CCCN3Cc3ccc(Cl)cc3N3CCN(C(C)=O)CC3)CC2)n1` [Example 36, N-(1-(1-(2-(4-acetylpiperazin-1-yl)-4-chlorobenzyl)-1,8-diazaspiro[4.5]decane-8-carbonyl)-1H-pyrazol-3-yl)acetamide], the negative-log IC50 (pIC50) on MAGL was 6.00 to 7.00; at FAAH, 5.00 to 6.00. For the same molecule, the values for the inhibition at 1 µM on MAGL and at FAAH were at least 75% and 0 to 25%, respectively.
On the same counts, the results for `CC(=O)Nc1ccn(C(=O)N2CCN(Cc3ccc(C(F)(F)F)cc3N3CCC(F)(F)CC3)CC2)n1` [Example 46, N-(1-(4-(2-(4,4-difluoropiperidin-1-yl)-4-(trifluoromethyl)benzyl)piperazine-1-carbonyl)-1H-pyrazol-3-yl)acetamide] are at least 7.00, 5.00 to 6.00, at least 75% and 0 to 25%.
On to `CC(=O)Nc1ccn(C(=O)N2CCN(Cc3ccc(Cl)cc3N3CCC(F)(F)CC3)CC2)n1` [Example 57, N-(1-(4-(4-chloro-2-(4,4-difluoropiperidin-1-yl)benzyl)piperazine-1-carbonyl)-1H-pyrazol-3-yl)acetamide], for which, on MAGL, the negative logarithm of the IC50 (pIC50) is at least 7.00 and the inhibition at 1 µM is at least 75%. Further, on FAAH, the pIC50 is 5.00 to 6.00 and the inhibition at 1 µM lay in the range of 0 to 25%.
For `CCN1CCN(c2cc(Cl)ccc2CN2CCN(C(=O)n3ccc(NC(C)=O)n3)CC2)CC1` [Example 59, N-(1-(4-(4-chloro-2-(4-ethylpiperazin-1-yl)benzyl)piperazine-1-carbonyl)-1H-pyrazol-3-yl)acetamide] the same measures were 6.00 to 7.00, at least 75%, 5.00 to 6.00 and 0 to 25%.
On the same counts, the results for `CC(=O)Nc1ccn(C(=O)N2CCC3(CCCN3Cc3cc(Cl)cc(N4C5CCC4COC5)c3)CC2)n1` [Example 64, N-(1-(1-(3-(3-oxa-8-azabicyclo[3.2.1]octan-8-yl)-5-chlorobenzyl)-1,8-diazaspiro[4.5]decane-8-carbonyl)-1H-pyrazol-3-yl)acetamide] are at least 7.00, at least 75%, 5.00 to 6.00 and 0 to 25%.
Turning to `CC(=O)Nc1ccn(C(=O)N2CCC3(CCCN3Cc3cc(Cl)cc(N4CC5CN(C(C)=O)CC5C4)c3)CC2)n1` (stereo not shown) [Example 65, N-(1-(1-(3-(5-acetylhexahydropyrrolo[3,4-c]pyrrol-2(1H)-yl)-5-chlorobenzyl)-1,8-diazaspiro[4.5]decane-8-carbonyl)-1H-pyrazol-3-yl)acetamide], the inhibition at 1 µM on MAGL was at least 75%; on FAAH, 25 to 50%.
For `CC(=O)N(C)c1ccn(C(=O)N2CCC3(CCCN3Cc3cc(N4CCCC4)cc(C(F)(F)F)c3)CC2)n1` [Example 66, N-methyl-N-(1-(1-(3-(pyrrolidin-1-yl)-5-(trifluoromethyl)benzyl)-1,8-diazaspiro[4.5]decane-8-carbonyl)-1H-pyrazol-3-yl)acetamide] the same measures were 50 to 75% and 0 to 25%.
Take `CC(=O)N(C)c1ccn(C(=O)N2CCC3(CCCN3Cc3cc(N4C5CCC4COC5)cc(C(F)(F)F)c3)CC2)n1` [Example 67, N-(1-(1-(3-(3-oxa-8-azabicyclo[3.2.1]octan-8-yl)-5-(trifluoromethyl)benzyl)-1,8-diazaspiro[4.5]decane-8-carbonyl)-1H-pyrazol-3-yl)-N-methylacetamide]: the inhibition at 1 µM at MAGL and on FAAH was 0 to 25% in each case.
Consider `CC(=O)N(C)c1ccn(C(=O)N2CCC3(CCCN3Cc3ccc(C(F)(F)F)cc3N3CCCC3)CC2)n1` [Example 68, N-methyl-N-(1-(1-(2-(pyrrolidin-1-yl)-4-(trifluoromethyl)benzyl)-1,8-diazaspiro[4.5]decane-8-carbonyl)-1H-pyrazol-3-yl)acetamide], for which the inhibition at 1 µM was 50 to 75% on MAGL and 0 to 25% at FAAH.
On to `CC(=O)N(C)c1ccn(C(=O)N2CCN(Cc3cc(N4CCCC4)cc(C(F)(F)F)c3)CC2)n1` [Example 70, N-methyl-N-(1-(4-(3-(pyrrolidin-1-yl)-5-(trifluoromethyl)benzyl)piperazine-1-carbonyl)-1H-pyrazol-3-yl)acetamide], for which, at MAGL, the pIC50 is 6.00 to 7.00 and the inhibition at 1 µM was at least 75%. At FAAH, the negative-log IC50 (pIC50) was 5.00 to 6.00 and the inhibition at 1 µM was 0 to 25%.
For `CC(=O)Nc1ccn(C(=O)N2CCN(Cc3ccc(C(F)(F)F)cc3Oc3nc4ccccc4s3)CC2)n1` [Example 75, N-(1-(4-(2-(benzo[d]thiazol-2-yloxy)-4-(trifluoromethyl)benzyl)piperazine-1-carbonyl)-1H-pyrazol-3-yl)acetamide] the same measures were at least 7.00, at least 75%, 5.00 to 6.00 and 0 to 25%.
For `CC(=O)Nc1ccn(C(=O)N2CCN(Cc3cc(Oc4nc5ccccc5s4)cc(C(F)(F)F)c3)CC2)n1` [Example 76, N-(1-(4-(3-(benzo[d]thiazol-2-yloxy)-5-(trifluoromethyl)benzyl)piperazine-1-carbonyl)-1H-pyrazol-3-yl)acetamide] the same measures were at least 7.00, at least 75%, 6.00 to 7.00 and at least 75%.
Take `CC(=O)Nc1ccn(C(=O)N2CCN(Cc3ccc(C(F)(F)F)cc3OC3CCS(=O)(=O)CC3)CC2)n1` [Example 77, N-(1-(4-(2-((1,1-dioxidotetrahydro-2H-thiopyran-4-yl)oxy)-4-(trifluoromethyl)benzyl)piperazine-1-carbonyl)-1H-pyrazol-3-yl)acetamide]: the inhibition at 1 µM at MAGL was at least 75%; on FAAH, 0 to 25%.
With `CC(=O)Nc1ccn(C(=O)N2CCC3(CCCN3Cc3cc(Oc4nc5ccccc5s4)cc(C(F)(F)F)c3)CC2)n1` [Example 86, N-(1-(1-(3-(benzo[d]thiazol-2-yloxy)-5-(trifluoromethyl)benzyl)-1,8-diazaspiro[4.5]decane-8-carbonyl)-1H-pyrazol-3-yl)acetamide], the inhibition at 1 µM on MAGL was at least 75%; on FAAH, 50 to 75%.
`CC(=O)Nc1ccn(C(=O)N2CCC3(CCCN3Cc3ccc(C(F)(F)F)cc3OC3CCS(=O)(=O)CC3)CC2)n1` [Example 87, N-(1-(1-(2-((1,1-dioxidotetrahydro-2H-thiopyran-4-yl)oxy)-4-(trifluoromethyl)benzyl)-1,8-diazaspiro[4.5]decane-8-carbonyl)-1H-pyrazol-3-yl)acetamide]: at MAGL, the negative logarithm of the IC50 (pIC50) was 6.00 to 7.00 and the inhibition at 1 µM was at least 75%. Also, at FAAH, the pIC50 was 5.00 to 6.00 and the inhibition at 1 µM fell in the range of 25 to 50%.
As to `CC(=O)Nc1ccn(C(=O)N2CCC3(CCCN3Cc3ccc(C(F)(F)F)cc3OCC(=O)N3CCCC3)CC2)n1` [Example 89, N-(1-(1-(2-(2-oxo-2-(pyrrolidin-1-yl)ethoxy)-4-(trifluoromethyl)benzyl)-1,8-diazaspiro[4.5]decane-8-carbonyl)-1H-pyrazol-3-yl)acetamide], the inhibition at 1 µM was at least 75% at MAGL and 0 to 25% at FAAH.
Turning to `O=C(CO)Nc1ccn(C(=O)N2CCN(Cc3ccc(Cl)cc3)CC2)n1` [Example 91, N-(1-(4-(4-chlorobenzyl)piperazine-1-carbonyl)-1H-pyrazol-3-yl)-2-hydroxyacetamide], the inhibition at 1 µM at MAGL was at least 75%; on FAAH, 0 to 25%.
On the same counts, the results for `O=C(CO)Nc1ccn(C(=O)N2CCN(Cc3cccc(Oc4ccccc4)c3)CC2)n1` [Example 92, 2-hydroxy-N-(1-(4-(3-phenoxybenzyl)piperazine-1-carbonyl)-1H-pyrazol-3-yl)acetamide] are at least 75% and at least 75%.
As for `CC(=O)Nc1ccn(C(=O)N2CCC3(CCCN3Cc3ccc4c(c3)COC4)CC2)n1` [Example 97, N-(1-(1-((1,3-dihydroisobenzofuran-5-yl)methyl)-1,8-diazaspiro[4.5]decane-8-carbonyl)-1H-pyrazol-3-yl)acetamide], at MAGL, the negative logarithm of the IC50 (pIC50) was 6.00 to 7.00 and the inhibition at 1 µM was at least 75%. On FAAH, the negative-log IC50 (pIC50) was 5.00 to 6.00 and the inhibition at 1 µM lay in the range of 0 to 25%.

What is called pIC50 is −log10 of the IC50, conventionally taken in molar units. A higher pIC50 goes with a low IC50.
